Where “and” joins values, the source holds several entries; their conditions need not be identical. Equal values may be shown once. Read-outs that look alike come from different tables or passages of the source.
Experiments:
Raf-1 kinase = test: Raf-1 protein levels in MDA-MB-468 tumors; assay type: in vivo, mice; details: all dosage levels, FIG. 10B
Procedure: (§1) Mice xenografted with MDA-MB-468 human breast cancer tumors were treated by intraperitoneal injection with Compound 5 at a dosage levels of 25, 50, 75, 100 and 150 mg/kg. The concentration of Compound 5 in the tumor 24 hours after administration was determined. […] Compound 5 was further tested for its effects on the pharmacodynamic marker Raf-1 kinase. Hsp90 stabilizes this kinase and maintains it in ready-to-be-activated conformation. Inhibition of Hsp90 leads to disruption of the complex and further ubiquitinylation and degradation of Raf-1 by the proteasome. Thus, Raf-1 degradation in tumors is a functional read-out of Hsp90 inhibition.

[1] = tested on: SKBr3 breast cancer cells; test: Growth inhibition, sulforhodamine B assay; assay type: cell-based, human; details: average of 3 measurements
Procedure: (§2) Cell culture. The human breast cancer cell lines SKBr3 and MDA-MB-468 were a gift from Dr. Neal Rosen (MSKCC). Cells were maintained in 1:1 mixture of DME:F12 supplemented with 2 mM glutamine, 50 units/mL penicillin, 50 […] and 10% heat inactivated fetal bovine serum (Gemini Bioproducts #100-10b) and incubated at 37° C., 5% CO2. Growth assays. Growth inhibition studies were performed using the sulforhodamine B assay as previously described.^29 In summary, experimental cultures were plated in microtiter plates (Nunc #167008). One column of wells was left without cells to serve as the blank control. Cells were allowed to attach overnight. The following day, growth medium having either drug or DMSO at twice the desired initial concentration was added to the plate in triplicate and was serially diluted at a 1:1 ratio in the microtiter plate. After 72 h of growth, the cell number in treated versus control wells was estimated after treatment with 50% trichloroacetic acid and staining with 0.4% sulforhodamine B in 1% acetic acid. […] Normal human renal proximal tubular epithelial (RPTEC) cells were purchased pre-seeded in 96-well plates (Clonetics, CC-3190). Upon receipt, cells were placed in a humidified incubator at 37° C., 5% CO2 and allowed to equilibrate for 3 h. Media was removed by suction and replaced with fresh media provided by the manufacturer. Cells were then treated with either drugs or DMSO for 72 h and the IC50 values were determined as described above.

PI3 kinase = PI3 kinase expression in MDA-MB-468 tumors; assay type: in vivo, mice; details: protein unaffected by Hsp90 inhibitors
MDA-MB-468 cells = test: Anti-mitotic assay (Tg-3 microtiter immunoassay); assay type: cell-based, human; details: 24 h, concentration dependent increase in Tg-3 luminescence
Procedure: Anti-mitotic assay. Black, clear-bottom microtiter 96-well plates (Corning Costar #3603) were used to accommodate experimental cultures. MDA-MB-468 cells were seeded in each well at 8,000 cells per well in growth medium (100 μL), and allowed to attach overnight at 37° C. and 5% CO2. Growth medium (100 μL) with drug or vehicle (DMSO) was gently added to the wells, and the plates were incubated at 37° C. and 5% CO2 for 24 h. Wells were washed with ice-cold TBST (2×200 μL). A house vacuum source attached to an eight-channel aspirator was used to remove the liquid from the 96-well plates. Ice-cold methanol (100 μL) was added to each well, and the plate was placed at 4° C. for 5 min. Methanol was removed by suction and plates were washed with ice-cold TBST (2×200 μL). Plates were further incubated with SuperBlock® blocking buffer (Pierce #37535) (200 μL) for 2 h at RT. The Tg-3 antibody (gift of Dr. Davies, Albert Einstein College of Medicine) diluted 1:200 in SuperBlock® was placed in each well (100 μL) except the control column that was treated with control antibody (Mouse IgM, NeoMarkers, NC-1030-P). After 72 h, wells were washed with ice-cold TBST (2×200 μL). […] Un-reacted antibody was removed by washing the plates with ice-cold TBST (3×200 μL) for 5 min on a shaker. The ECLTM Western Blotting Detection Reagents 1 and 2 in 1:1 mix (100 μL) was placed in each well and the plates were read immediately in an Analyst AD plate reader (Molecular Devices). Luminescence readings were imported into SOFTmax PROR 4.3.1. Anti-mitotic activity was defined as a concentration dependent increase in luminescence readings in compound-treated wells as compared to DMSO only treated wells.

[2] = Tumor and plasma concentration in MDA-MB-468 xenografted mice; assay type: in vivo; details: 24 hours after intraperitoneal injection
Procedure: as §1

recombinant Hsp90α = recombinant Hsp90α (Homo sapiens (Human), UniProt P07900); test: Hsp90 competition assay (fluorescence polarization), recombinant protein; assay type: binding; details: average of 3 measurements, displacement of fluorescent GM
Procedure: Hsp90 competition assay. Fluorescence polarization measurements were performed on an Analyst AD instrument (Molecular Devices, Sunnyvale, Calif.). […] The assay buffer (HFB) contained 20 mM HEPES (K) pH 7.3, 50 mM KCl, 5 mM MgCl2, 20 mM Na2MoO4, 0.01% NP40. Before each use, 0.1 mg/mL bovine gamma globulin (BGG) (Panvera Corporation, Madison, Wis.) and 2 mM DTT (Fisher Biotech, Fair Lawn, N.J.) were freshly added. GM-BODIPY was synthesized as previously reported^23a and was dissolved in DMSO to form 10 μM solutions.

Her2 = Her2 assay (microtiter immunoassay of Her2 degradation); assay type: cell-based, human
Procedure: Her2 assay. SKBr3 cells were plated in black, clear-bottom microtiter plates (Corning #3603) at 3,000 cells/well in growth medium (100 μl) and allowed to attach for 24 h at 37° C. and 5% CO2. Growth medium (100 μl) with drug or vehicle (DMSO) was carefully added to the wells, and the plates were placed at 37° C. and 5% CO2. Following 24 h incubation with drugs, wells were washed with ice-cold Tris buffer saline (TBS) containing 0.1% Tween 20 (TBST) (200 μl). A house vacuum source attached to an eight-channel aspirator was used to remove the liquid from the plates. Further, methanol (100 μl at −20° C.) was added to each well, and the plate was placed at 4° C. for 10 min. Methanol was removed by washing with TBST (2×200 μl). After further incubation at RT for 2 h with SuperBlockR (Pierce 37535) (200 μl), anti-Her-2 (c-erbB-2) antibody (Zymed Laboratories #28-004) (100 μl, 1:200 in SuperBlockR) was placed in each well. The plate was incubated overnight at 4° C. For control wells, 1:200 dilution of a normal rabbit IgG (Santa Cruz #SC-2027) in SuperblockR was used. Each well was washed with TBST (2×200 μl) and incubated at RT for 2 h with an anti-rabbit HRP-linked antibody (Sigma, A-0545) (100 μl, 1:2000 in SuperBlockR). Unreacted antibody was removed by washing with TBST (3×200 μl), and the ECLTM Western blotting reagent (Amersham #RPN2106) (100 μL) was added. The plate was immediately read in an Analyst AD plate reader (Molecular Devices). Each well was scanned for 0.1 s. Readings from wells containing only control IgG and the corresponding HRP-linked secondary antibody were set as background and deducted from all measured values.

Hsp90 Brain = test: Hsp90 competition assay, brain homogenate; assay type: binding, mouse; details: for EC50: normal tissue; for Brain/SKBr3: ratio of EC50 Hsp90 values
Procedure: (§3) Hsp90 competition assay. Fluorescence polarization measurements were performed on an Analyst AD instrument (Molecular Devices, Sunnyvale, Calif.). […] The assay buffer (HFB) contained 20 mM HEPES (K) pH 7.3, 50 mM KCl, 5 mM MgCl2, 20 mM Na2MoO4, 0.01% NP40. Before each use, 0.1 mg/mL bovine gamma globulin (BGG) (Panvera Corporation, Madison, Wis.) and 2 mM DTT (Fisher Biotech, Fair Lawn, N.J.) were freshly added. […] Cell lysates were prepared rupturing cellular membranes by freezing at −70° C. and dissolving the cellular extract in HFB with added protease and phosphotase inhibitors. Organs were harvested from a healthy mouse and homogenized in HFB. Saturation curves were recorded in which GM-BODIPY (5 nM) was treated with increasing amounts of cellular lysates.

Hsp90 heart = test: Hsp90 competition assay, heart homogenate; details: for Heart/SKBr3: ratio of EC50 Hsp90 values; for EC50: read-out: EC50 Hsp90 heart, normal tissue
Procedure: as §3

Hsp90 lung = test: Hsp90 competition assay, lung homogenate; details: for Lung/SKBr3: ratio of EC50 Hsp90 values; for EC50: read-out: EC50 Hsp90 lung, normal tissue
Procedure: as §3

Hsp90 SKBr3 = test: Hsp90 competition assay, SKBr3 cell lysate; details: read-out: EC50 Hsp90 SKBr3
Procedure: Hsp90 competition assay. Fluorescence polarization measurements were performed on an Analyst AD instrument (Molecular Devices, Sunnyvale, Calif.). […] The assay buffer (HFB) contained 20 mM HEPES (K) pH 7.3, 50 mM KCl, 5 mM MgCl2, 20 mM Na2MoO4, 0.01% NP40. Before each use, 0.1 mg/mL bovine gamma globulin (BGG) (Panvera Corporation, Madison, Wis.) and 2 mM DTT (Fisher Biotech, Fair Lawn, N.J.) were freshly added. GM-BODIPY was synthesized as previously reported^23a and was dissolved in DMSO to form 10 μM solutions. Recombinant Hsp90α was purchased from Stressgen Bioreagents (cat. No. SPP-776), (Victoria, Canada). Cell lysates were prepared rupturing cellular membranes by freezing at −70° C. and dissolving the cellular extract in HFB with added protease and phosphotase inhibitors. […] Saturation curves were recorded in which GM-BODIPY (5 nM) was treated with increasing amounts of cellular lysates.

SCLC cell lines = test: Cell death and apoptosis across the SCLC cell lines; assay type: cell-based; details: each of the SCLC cell lines, FIGS. 6A and B
[3] = tested on: renal proximal tubular epithelial cells (RPTEC); test: Growth inhibition of normal RPTEC cells; assay type: cell-based, human; details: for IC50: 72 h, read-out: IC50 RPTEC
Procedure: as §2

Solubility in PBS = assay type: physicochemical; details: aqueous buffer, acid addition salt form
Procedure: Growth over 96 h was assessed.

[4] = Homo sapiens, SK-BR-3; Her2 degradation in SKBr3 cells, 24 h; average of 3 measurements
[5] = Her2 degradation in SKBr3 cells, 24 h; average of 3 measurements

Compound	IC50 ([1]; Homo sapiens, SK-BR-3, 72 h)	Anti-mitotic (MDA-MB-468 cells)	EC50 (recombinant Hsp90α; read-out: EC50 Hsp90-α)	IC50 (Her2; [4])	further results
CC(C)NCCCn1c(Sc2cc3c(cc2Br)OCO3)nc2c(N)ncnc21 [Example 5, 8-(6-Bromo-benzo[1,3]dioxol-5-ylsulfanyl)-9-(3-isopropylamino-propyl)adenine]	0.142 ± 0.022 µM	Yes			Raf-1 levels (% control) (Raf-1 kinase): substantial decrease; expression of PI3 kinase (PI3 kinase): no change in expression; detection in plasma [2]: could not be detected
C#CCCCn1c(Cc2cc3c(cc2Cl)OCO3)nc2c(N)nc(F)nc21 [Example 7, 2-Fluoro-8-(6-chloro-benzo[1,3]dioxol-5-ylmethyl)-9-(pent-4-ynyl)adenine]	0.25 ± 0.03 µM	Yes	0.0772 ± 0.001 µM	0.3 ± 0.015 µM	
C#CCCCn1c(Cc2cc(OC)c(OC)cc2I)nc2c(N)nc(F)nc21 [Example 12, 2-Fluoro-8-(2-iodo-4,5-dimethoxy-benzyl)-9-(pent-4-ynyl)adenine]	> 50 µM	No	> 15 µM	> 50 µM	
COc1cc(Sc2nc3c(N)ncnc3n2CCOC(C)C)c(Cl)cc1Cl [Example 3, 9-(2-Isopropoxy-ethyl)-8-(2,4-dichloro-5-methoxy-benzenesulfanyl)adenine]		No	5 ± 1.1 µM		IC50 ([1]; 72 h): 16.1 ± 0.7 µM; IC50 (Her2; [5]): 58.3 ± 2.2 µM
C#CCCCn1c(Sc2cc3c(cc2Br)OCO3)nc2c(N)ncnc21 [Example 1, 9-(Pent-4-ynyl)-8-(6-bromo-benzo[1,3]dioxol-5-ylsulfanyl)adenine]		Yes			EC50 (recombinant Hsp90α; EC50 Hsp90-α): 0.03 µM and 0.0508 µM; EC50 (Hsp90 Brain): 40.2 ± 25.3 µM; Brain/SKBr3 (Hsp90 Brain): 2000; Heart/SKBr3 (Hsp90 heart): 3265; EC50 (Hsp90 heart): 65.3 ± 9.9 µM; Lung/SKBr3 (Hsp90 lung): 735; EC50 (Hsp90 lung): 14.7 ± 1.7 µM; EC50 (Hsp90 SKBr3): 0.02 ± 0.06 µM; induction of apoptosis (SCLC cell lines): induced apoptosis; IC50 (Her2; [5]): 0.365 ± 0.045 µM; IC50 (Her2; Homo sapiens, SK-BR-3, 24 h, Her2 degradation in SKBr3 cells, average of 3 measurements): 0.3 ± 0.05 µM; IC50 ([3]; Homo sapiens, RPTEC): 4.1 ± 0.9 µM
CC(C)NCCCn1c(Cc2cc3c(cc2I)OCO3)nc2c(N)nc(F)nc21 [Example 8, 2-Fluoro-8-(6-iodo-benzo[1,3]dioxol-5-ylmethyl)-9-(3-isopropylamino-propyl) adenine]	0.045 ± 0.006 µM	Yes	0.0504 ± 0.004 µM	0.08 ± 0.01 µM	solubility (Solubility in PBS): > 5 mM
9-(Pent-4-ynyl)-8-(2,4,5-trichloro-phenylsulfanyl)adenine [Example 2]					EC50 (Hsp90 Brain): 26.7 ± 7.7 µM; Brain/SKBr3 (Hsp90 Brain): 298; EC50 (Hsp90 SKBr3): 0.09 ± 0.03 µM; IC50 ([3]; normal cells): 28.1 ± 2.2 µM; RPTEC/SKBr3 ([3]; ratio of growth IC50 values): 15.6
C#CCCCn1c(Cc2cc(OC)c(OC)cc2Br)nc2c(N)nc(F)nc21 [Example 13, 2-Fluoro-8-(2-bromo-4,5-dimethoxy-benzyl)-9-(pent-4-ynyl)adenine]	55 ± 2.3 µM	No	> 15 µM	> 50 µM	
C#CCCCn1c(Sc2cc(Cl)c(Cl)cc2Cl)nc2c(N)ncnc21 [Example 2, 9-(Pent-4-ynyl)-8-(2,4,5-trichloro-phenylsulfanyl)adenine]	48.4 ± 2.5 µM	No	8.5 ± 0.1 µM	58 ± 1.4 µM	
C#CCCCn1c(Sc2cc3c(cc2I)OCO3)nc2c(N)ncnc21 [Example 10, 8-(6-Iodo-benzo[1,3]dioxol-5-ylsulfanyl)-9-(pent-4-ynyl)adenine]	0.09 ± 0.002 µM	Yes		0.1 ± 0.01 µM	Heart/SKBr3 (Hsp90 heart): 370; EC50 (Hsp90 heart): 6 ± 0.2 µM; Lung/SKBr3 (Hsp90 lung): 136; EC50 (Hsp90 lung): 2.2 ± 0.4 µM; EC50 (Hsp90 SKBr3): 0.0161 ± 0.001 µM
C#CCCCn1c(Cc2cc(OC)c(OC)cc2Cl)nc2c(N)nc(F)nc21 [Example 14, 2-Fluoro-8-(2-chloro-4,5-dimethoxy-benzyl)-9-(pent-4-ynyl)adenine]	20.6 ± 6.7 µM	No	4.6 ± 0.02 µM	30 ± 1 µM	
Nc1ncnc2nc(Sc3cc(Cl)c(Cl)cc3Cl)[nH]c12 [Example 4, 8-(2,4,5-Trichloro-phenylsulfanyl)adenine]	36 ± 0.2 µM	Yes	15.4 ± 2.2 µM	47.8 ± 3.2 µM	
C#CCCCn1c(Cc2cc3c(cc2I)OCO3)nc2c(N)nc(F)nc21 [Example 11, 2-Fluoro-8-(6-iodo-benzo[1,3]dioxol-5-ylmethyl)-9-(pent-4-ynyl)adenine]	0.09 ± 0.03 µM	Yes	0.0223 ± 0.002 µM	0.09 ± 0.01 µM	
C#CCCCn1c(Cc2cc3c(cc2Br)OCO3)nc2c(N)nc(F)nc21 [Example 6, 2-Fluoro-8-(6-bromo-benzo[1,3]dioxol-5-ylmethyl)-9-(pent-4-ynyl)adenine]	0.215 ± 0.055 µM	Yes	0.0565 ± 0.002 µM	0.21 ± 0.01 µM	Heart/SKBr3 (Hsp90 heart): 343; EC50 (Hsp90 heart): 13.3 ± 0.21 µM; Lung/SKBr3 (Hsp90 lung): 134; EC50 (Hsp90 lung): 5.2 ± 0.21 µM; EC50 (Hsp90 SKBr3): 0.0388 ± 0.003 µM

Source: US10167285B2, “Small-molecule HSP90 inhibitors” (Memorial Sloan Kettering Cancer Center, priority 2005, dated 2019)
